Calls of active or inactive are those of the source. No cut-off for these calls is given here.
Assays:
[1] = Inhibition of glucagon-induced glucose secretion in C57BL/6 mouse primary hepatocytes at 1 uM; type: functional; conditions: C57BL/6, Hepatocyte
[2] = Inhibition of NE-induced lipolysis in adipocytes (unknown origin) assessed as reduction in glycerol release at 1 uM pre-incubated for 30 mins before NE stimulation for 90 mins by glycerol reagent based assay relative to control; type: functional, Adipocyte; conditions: 2 h
Mus musculus [3] = assay: Suppression of fasting blood glucose in overnight fasted ob/ob mouse 25 mg/kg, ip dosed 3 times and measured 3 hrs after last dose; type: functional, organism-based
Adipocyte = assay: Inhibition of NE-induced lipolysis in adipocytes (unknown origin) assessed as reduction in glycerol release at 1 to 10000 nM pre-incubated for 30 mins before NE stimulation for 90 mins by glycerol reagent based assay relative to control; type: functional, cell-based; conditions: dose 1-10000 nM, time 120.0 min
Mus musculus [4] = assay: In-vivo antagonist activity at beta-adrenergic receptor in fasted ob/ob mouse assessed as inhibition of hormone-sensitive lipase phosphorylation in brown adipose tissue at 25 mg/kg
Mus musculus [5] = assay: In-vivo antagonist activity at beta-adrenergic receptor in fasted ob/ob mouse assessed as increase in accumulation of liver glycogen at 25 mg/kg; type: functional, organism-based
[6] = biological target: Beta-2 adrenergic receptor (Homo sapiens, UniProt P07550); assay: Binding affinity to beta2 adrenoceptor (unknown origin)
Mus musculus [7] = assay: In-vivo antagonist activity at beta-adrenergic receptor in fasted and HFD fed mouse assessed as increase in accumulation of liver glycogen at 50 mg/kg; type: functional, organism-based
Mus musculus [8] = assay: In-vivo antagonist activity at beta-adrenergic receptor in fasted and HFD fed mouse assessed as inhibition of hormone-sensitive lipase phosphorylation in epididymal white adipose tissue at 50 mg/kg; type: functional, organism-based
[9] = biological target: T1, 5-hydroxytryptamine receptor 1A (Homo sapiens, UniProt P08908); assay: Binding affinity to 5HT1A receptor (unknown origin)
T1 sequence (P08908 whole entry): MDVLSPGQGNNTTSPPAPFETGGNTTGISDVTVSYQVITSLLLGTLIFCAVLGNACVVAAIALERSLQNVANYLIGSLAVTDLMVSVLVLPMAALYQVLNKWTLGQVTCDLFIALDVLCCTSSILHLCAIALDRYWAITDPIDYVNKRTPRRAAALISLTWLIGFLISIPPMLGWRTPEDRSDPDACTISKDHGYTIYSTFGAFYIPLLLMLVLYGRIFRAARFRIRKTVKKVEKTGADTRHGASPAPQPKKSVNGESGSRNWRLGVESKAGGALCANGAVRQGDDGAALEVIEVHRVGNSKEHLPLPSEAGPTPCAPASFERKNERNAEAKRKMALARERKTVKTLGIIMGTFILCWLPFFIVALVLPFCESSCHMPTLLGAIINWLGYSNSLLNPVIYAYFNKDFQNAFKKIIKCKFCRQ

Beta-2 adrenergic receptor, sequence (P07550 whole entry): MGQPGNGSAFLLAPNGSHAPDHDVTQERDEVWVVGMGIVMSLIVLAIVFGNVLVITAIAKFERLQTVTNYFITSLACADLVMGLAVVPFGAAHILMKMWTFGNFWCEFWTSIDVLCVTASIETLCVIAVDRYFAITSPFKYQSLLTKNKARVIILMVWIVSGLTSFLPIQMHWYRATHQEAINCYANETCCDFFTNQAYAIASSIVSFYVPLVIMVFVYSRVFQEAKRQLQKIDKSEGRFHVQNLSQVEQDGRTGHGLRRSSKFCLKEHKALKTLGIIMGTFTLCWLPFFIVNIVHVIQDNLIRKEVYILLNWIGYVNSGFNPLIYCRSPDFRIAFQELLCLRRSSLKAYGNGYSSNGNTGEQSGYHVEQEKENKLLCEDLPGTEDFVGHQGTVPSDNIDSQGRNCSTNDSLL

Structure (SMILES) | inhibition at 1 µM [1] [%] | inhibition ([2]; read-out: INH) [%] | also measured
CC(C)(C)NCC(O)COc1cccc2[nH]ccc12 (stereo unspecified) | 53 | 73.2 | –
COc1ccc(CN(CC(O)COc2cccc3[nH]ccc23)C(C)(C)C)cc1 (stereo unspecified) | 30.1 | 58.3 | –
Cc1ccc(CN(CC(O)COc2ccncc2)C(C)(C)C)cc1 (stereo unspecified) | 41.4 | 31.5 | –
COC(COc1cccc2[nH]ccc12)CN(Cc1ccccc1C)C(C)(C)C (stereo unspecified) | 22.7 | 14.6 | –
Cc1cccc(CN(CC(O)COc2cccc3[nH]ccc23)C(C)(C)C)c1 (stereo unspecified) | 62.6 | 40.4 | –
Cc1ccccc1CN(CC(O)COc1cccc2[nH]ccc12)C(C)(C)C (stereo unspecified) | 46 | 35.6 | –
Cc1ccc(CN(CC(O)COc2cccc3c2ccn3C)C(C)(C)C)cc1 (stereo unspecified) | 47.7 | 36.7 | –
CC(C)(C)N(Cc1ccc(F)cc1)CC(O)COc1cccc2[nH]ccc12 (stereo unspecified) | 52.2 | 55.3 | –
CC(C)NCC(O)COc1cccc2ccccc12 (stereo unspecified) [PROPRANOLOL] | – | – | inhibition [2]: 92.4%
Cc1ccc(CN(CC(O)COc2cccc(C)c2)C(C)(C)C)cc1 (stereo unspecified) | 31.5 | 13.1 | –
Cc1ccc(CN(CC(O)CNc2cccc3cc[nH]c23)C(C)(C)C)cc1 (stereo unspecified) | 35.1 | 13.2 | –
CC(=O)Nc1cccc(OCC(O)CN(Cc2ccc(C)cc2)C(C)(C)C)c1 (stereo unspecified) | 35.9 | 12.3 | –
CC(C)(C)N(CC(O)COc1cccc2[nH]ccc12)CC1CCCC1 (stereo unspecified) | 48.5 | 51.3 | –
COC(COc1cccc2[nH]ccc12)CN(CC1CCCC1)C(C)(C)C (stereo unspecified) | 66.4 | 1 | –
COC(COc1cccc2c1ccn2C)CN(Cc1ccc(C)cc1)C(C)(C)C (stereo unspecified) | 56.8 | 3.22 | –
Cc1ccc(CN(CC(O)COc2cccc3[nH]ccc23)C2CC2)cc1 (stereo unspecified) | 37.8 | 11.6 | –
Cc1ccc(CN(CC(O)CNc2ccc3[nH]ccc3c2)C(C)(C)C)cc1 (stereo unspecified) | 28.2 | 2.24 | –
Cc1ccc(CN(CC(O)COc2ccccc2)C(C)(C)C)cc1 (stereo unspecified) | 32.3 | 21.7 | –
Cc1ccc(CN(CCCOc2cccc3[nH]ccc23)C(C)(C)C)cc1 | 28.3 | 9.91 | –
CC(C)(C)c1ccc(CN(CC(O)COc2cccc3[nH]ccc23)C(C)(C)C)cc1 (stereo unspecified) | 47.3 | 11.3 | Activity (Mus musculus [3]): Active; inhibition (Adipocyte): inactive; Activity (Mus musculus [4]): inactive; Activity (Mus musculus [5]): inactive
Cc1ccc(CN(CC(O)COc2cccc3ccccc23)C(C)(C)C)cc1 (stereo unspecified) | -2.73 | 10.4 | –
COC(COc1cccc2[nH]ccc12)CN(Cc1ccc(C)cc1)C(C)(C)C (stereo unspecified) | 135 | -8.5 | –
Cc1ccc(CNCC(O)COc2cccc3[nH]ccc23)cc1 (stereo unspecified) | 34.5 | 40.6 | –
Cc1ccc(CN(CC(O)COc2ccc3[nH]ccc3c2)C(C)(C)C)cc1 (stereo unspecified) | 50.7 | 48.5 | –
Cc1ccc(CN(CC(O)COc2cccc3[nH]ccc23)C(C)C)cc1 (stereo unspecified) | 59.5 | 51.6 | –
CC(C)(C)N(Cc1ccc(C#N)cc1)CC(O)COc1cccc2[nH]ccc12 (stereo unspecified) | 49.3 | 53.7 | –
Cc1ccc(CN(CC(O)COc2cccc3[nH]ccc23)C(C)(C)C)cc1 (stereo unspecified) | 57.7 | 25.8 | Activity (Mus musculus [3]): Active; Ki [6]: 1300 nM; Activity (Mus musculus [7]): inactive; Activity (Mus musculus [4]): inactive; Activity (Mus musculus [8]): inactive; Ki [9]: 2100 nM; Activity (Mus musculus [5]): inactive
CN(C)c1ccc(CN(CC(O)COc2cccc3[nH]ccc23)C(C)(C)C)cc1 (stereo unspecified) | 35.3 | 65.2 | –

— ChEMBL document CHEMBL4706660, “Structure-Activity Relationship and Biological Investigation of SR18292 (16), a Suppressor of Glucagon-Induced Glucose Production” (J Med Chem, 2021)
